The text below walks through data of paper PMC6697583 (Cancer research, 2019).

pIC50: −log10 of the molar value.

In this assay the target is T1, heme oxygenase 1 (HO-1) (Homo sapiens, UniProt P09601).
T1 sequence (P09601 1-288): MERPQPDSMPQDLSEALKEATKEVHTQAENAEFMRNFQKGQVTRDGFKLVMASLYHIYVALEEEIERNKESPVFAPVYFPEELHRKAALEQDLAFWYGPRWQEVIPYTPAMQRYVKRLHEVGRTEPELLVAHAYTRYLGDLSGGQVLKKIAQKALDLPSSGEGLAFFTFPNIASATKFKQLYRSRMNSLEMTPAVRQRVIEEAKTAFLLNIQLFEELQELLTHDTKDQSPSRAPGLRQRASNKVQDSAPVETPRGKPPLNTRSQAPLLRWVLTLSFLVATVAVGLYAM
The assay can be described thus: bilirubin fluorescence assay on purified HO-1. The format is biochemical.

A word on the pIC50: it is −log10 of the IC50, conventionally taken in molar units. A lower pIC50 goes with a high IC50. `Cc1c(O)ccc2c1OC[C@@H](c1ccc(O)cc1)[C@H]2c1ccc(O)cc1` [ME-344, (3R,4S)-3,4-bis(4-hydroxyphenyl)-8-methyl-3,4-dihydro-2H-chromen-7-ol]: the pIC50 was 7.75.
